We go through 22 compounds from PubChem BioAssay AID330 (DTP/NCI, 2004).

Where “and” joins values, the source holds several entries; their conditions need not be identical. Equal values may be shown once. Toxic doses and inconclusive results are not listed.

For this assay, the system named is P388 leukemia ip, CD2F1 mice, survival T/C. Kind of assay: NCI In Vivo Anticancer Drug Screen. Data for tumor model P388 Leukemia (intraperitoneal) in CD2F1 (CDF1) mice. Conditions: endpoint: median survival time, higher = longer survival. The gist of the method: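 Mice carrying the transplanted tumor received test compound or vehicle. Survival was recorded in each group, and the value is the treated-group measurement divided by that of the vehicle-treated control group.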

Setting [1] is: dose: 120.0 mg/kg/injection, schedule: Q01DX005 (ip), vehicle: saline with Tween-80.
Where [2] appears, read: dose: 100.0 mg/kg/injection, schedule: Q04DX003 (ip), vehicle: Klucel (hydroxypropylcellulose) (HPC).
The mark [3] stands for this setting: dose: 200.0 mg/kg/injection, schedule: Q04DX003 (ip), vehicle: Klucel (hydroxypropylcellulose) (HPC).
Setting [4] is: dose: 400.0 mg/kg/injection, schedule: Q04DX003 (ip), vehicle: Klucel (hydroxypropylcellulose) (HPC).
[5] abbreviates: dose: 100.0 mg/kg/injection, schedule: Q01DX009 (ip), vehicle: saline with Tween-80.
[6] abbreviates: dose: 200.0 mg/kg/injection, schedule: Q01DX009 (ip), vehicle: saline with Tween-80.
Setting [7] is: dose: 50.0 mg/kg/injection, schedule: Q01DX005 (ip), vehicle: Klucel (hydroxypropylcellulose) (HPC).
[8] abbreviates: dose: 100.0 mg/kg/injection, schedule: Q01DX005 (ip), vehicle: Klucel (hydroxypropylcellulose) (HPC).
The mark [9] stands for this setting: dose: 50.0 mg/kg/injection, schedule: Q01DX009 (ip), vehicle: saline with Tween-80.
[10] abbreviates: dose: 100.0 mg/kg/injection, schedule: Q01DX009 (ip), vehicle: Klucel (hydroxypropylcellulose) (HPC).
[11] abbreviates: dose: 200.0 mg/kg/injection, schedule: Q01DX009 (ip), vehicle: Klucel (hydroxypropylcellulose) (HPC).

As to `c1ccc2cc(OCC3CO3)c(OCC3CO3)cc2c1` (centres undefined), the T/C is, setting by setting: (dose: 1.88 mg/kg/injection, schedule: Q01DX005 (ip), vehicle: saline with Tween-80) 100 % of control; (dose: 3.75 mg/kg/injection, schedule: Q01DX005 (ip), vehicle: saline with Tween-80) 107 % of control; (dose: 7.5 mg/kg/injection, schedule: Q01DX005 (ip), vehicle: saline with Tween-80) 116 % of control; (dose: 15.0 mg/kg/injection, schedule: Q01DX005 (ip), vehicle: saline with Tween-80) 122 % of control; under setting [1], 151 % of control.
As for `Cc1ccc([N+](=O)[O-])cc1O`, the T/C is, setting by setting: (dose: 25.0 mg/kg/injection, schedule: Q01DX009 (ip), vehicle: other) 95 % of control; (dose: 50.0 mg/kg/injection, schedule: Q01DX009 (ip), vehicle: other) 100 % of control; (dose: 100.0 mg/kg/injection, schedule: Q01DX009 (ip), vehicle: other) 110 % of control.
As for `O=C1C=C2COC(O)CC2CC1` (centres undefined), the T/C is 104 % of control under setting [2], 105 % of control under setting [3] and 111 % of control under setting [4].
As to `NC(C=O)C(O)C(O)C(O)CO` (centres undefined), the T/C under setting [5] was 109 % of control; the T/C (dose: 100.0 mg/kg/injection, schedule: Q04DX003 (ip), vehicle: saline sonified) is 100 % of control; the T/C under setting [6] is 95 % of control; the T/C (dose: 200.0 mg/kg/injection, schedule: Q04DX003 (ip), vehicle: saline sonified) is 100 % of control; the T/C (dose: 400.0 mg/kg/injection, schedule: Q01DX009 (ip), vehicle: saline with Tween-80) is 95 % of control; the T/C (dose: 400.0 mg/kg/injection, schedule: Q04DX003 (ip), vehicle: saline sonified) was 90 % of control.
For the compound `COC(=O)C(Cl)Cc1cnc[nH]1` (centres undefined), the T/C (dose: 50.0 mg/kg/injection, schedule: Q01DX009 (ip), vehicle: saline) is 92 % of control; the T/C (dose: 100.0 mg/kg/injection, schedule: Q01DX009 (ip), vehicle: saline) is 98 % of control; the T/C (dose: 200.0 mg/kg/injection, schedule: Q01DX009 (ip), vehicle: saline) was 92 % of control.
Regarding `O=C1c2ccccc2C(=O)C2C1C1(c3ccccc3)OC2(c2ccccc2)c2ccccc21` (centres undefined), the T/C was 101 % of control (dose: 25.0 mg/kg/injection, schedule: Q01DX005 (ip), vehicle: Klucel (hydroxypropylcellulose) (HPC)); 99 % of control under setting [7]; 101 % of control under setting [8].
Turning to `Cn1c(=O)c2c(nc(NCC[N+](C)(C)Cc3ccc(Cl)cc3)n2C)n(C)c1=O`, the T/C (dose: 6.25 mg/kg/injection, schedule: Q01DX009 (ip), vehicle: Klucel (hydroxypropylcellulose) (HPC)) is 93 % of control; the T/C (dose: 12.5 mg/kg/injection, schedule: Q01DX009 (ip), vehicle: Klucel (hydroxypropylcellulose) (HPC)) is 101 % of control; the T/C (dose: 25.0 mg/kg/injection, schedule: Q01DX009 (ip), vehicle: Klucel (hydroxypropylcellulose) (HPC)) was 113 % of control and 94 % of control.
For the compound `CC(C)[CH2][Sn]1([CH2]C(C)C)[O]CCNCC[O]1`, the T/C is 105 % of control (dose: 0.78 mg/kg/injection, schedule: Q01DX009 (ip), vehicle: saline); 109 % of control (dose: 1.56 mg/kg/injection, schedule: Q01DX009 (ip), vehicle: saline); 88 % of control (dose: 3.12 mg/kg/injection, schedule: Q01DX009 (ip), vehicle: saline).
Regarding `Cc1nn2c(-c3cnns3)nnc2s1`, the T/C reads like this: (dose: 50.0 mg/kg/injection, schedule: Q01DX001 (ip), vehicle: Klucel (hydroxypropylcellulose) (HPC)) 107 % of control; (dose: 100.0 mg/kg/injection, schedule: Q01DX001 (ip), vehicle: Klucel (hydroxypropylcellulose) (HPC)) 107 % of control; (dose: 200.0 mg/kg/injection, schedule: Q01DX001 (ip), vehicle: Klucel (hydroxypropylcellulose) (HPC)) 100 % of control.
As for `COc1ccc2c(c1)c(NCCCCCC#N)cc(C)[n+]2C`, the T/C was 100 % of control (dose: 12.5 mg/kg/injection, schedule: Q01DX005 (ip), vehicle: saline with Tween-80); 100 % of control (dose: 25.0 mg/kg/injection, schedule: Q01DX005 (ip), vehicle: saline with Tween-80); 105 % of control (dose: 50.0 mg/kg/injection, schedule: Q01DX005 (ip), vehicle: saline with Tween-80).
On to `[O-][n+]1ccccc1C(O)CSc1ccccc1` (centres undefined), for which the T/C reads like this: under setting [9], 100 % of control; under setting [5], 101 % of control; under setting [6], 100 % of control.
As to `O=S1(F)=NP(N2CC2)(N2CC2)=NP(N2CC2)(N2CC2)=N1` (centres undefined), the T/C (dose: 5.0 mg/kg/injection, schedule: Q04DX003 (ip), vehicle: saline) is 86 % of control; the T/C (dose: 10.0 mg/kg/injection, schedule: Q04DX003 (ip), vehicle: saline) is 102 % of control; the T/C (dose: 20.0 mg/kg/injection, schedule: Q04DX003 (ip), vehicle: saline) is 86 % of control; the T/C (dose: 40.0 mg/kg/injection, schedule: Q04DX003 (ip), vehicle: saline) is 234 % of control.
As for `NC(=S)N/N=C\c1ccc(/C=N/NC(N)=S)cc1`, the T/C is, setting by setting: (dose: 100.0 mg/kg/injection, schedule: Q04DX003 (ip), vehicle: saline with Tween-80) 91 % of control; (dose: 400.0 mg/kg/injection, schedule: Q04DX003 (ip), vehicle: saline with Tween-80) 86 % of control.
Consider `FC(F)(F)c1ccccc1NC(=S)SCc1ccc(Cl)cc1`, for which the T/C reads like this: (dose: 50.0 mg/kg/injection, schedule: Q01DX009 (ip), vehicle: suspension in saline) 104 % of control; (dose: 100.0 mg/kg/injection, schedule: Q01DX009 (ip), vehicle: suspension in saline) 101 % of control; (dose: 200.0 mg/kg/injection, schedule: Q01DX009 (ip), vehicle: suspension in saline) 108 % of control.
For the compound `Cc1ccccc1N=Nc1c(N)ccc2ccccc12`, the T/C was 105 % of control under setting [10]; 111 % of control under setting [11]; 109 % of control (dose: 400.0 mg/kg/injection, schedule: Q01DX009 (ip), vehicle: Klucel (hydroxypropylcellulose) (HPC)).
Regarding `Cc1ccc2c(c1)C1(SC(C)C(=O)N1c1ccc(Br)cc1)C(=O)N2` (centres undefined), the T/C (dose: 60.0 mg/kg/injection, schedule: Q01DX005 (ip), vehicle: saline with Tween-80) is 94 % of control; the T/C under setting [1] is 96 % of control; the T/C (dose: 240.0 mg/kg/injection, schedule: Q01DX005 (ip), vehicle: saline with Tween-80) is 97 % of control.
As to `O=C1C=C(SCCO)C(=O)c2ccccc21`, the T/C by setting is: (dose: 0.62 mg/kg/injection, schedule: Q01DX009 (ip), vehicle: saline with Tween-80) 100 % of control; (dose: 1.25 mg/kg/injection, schedule: Q01DX009 (ip), vehicle: saline with Tween-80) 100 % of control; (dose: 2.5 mg/kg/injection, schedule: Q01DX009 (ip), vehicle: saline with Tween-80) 95 % of control.
As for `Nc1nc2nc(N=Nc3ccc(S(=O)(=O)O)cc3)[nH]c2c(=O)[nH]1`, the T/C was 104 % of control under setting [7]; 104 % of control under setting [8]; 104 % of control (dose: 200.0 mg/kg/injection, schedule: Q01DX005 (ip), vehicle: Klucel (hydroxypropylcellulose) (HPC)).
On to `CC1(C)C(C#N)C(=O)N(Cc2ccccc2)C(=O)C1C#N` (centres undefined), for which the T/C is, setting by setting: under setting [9], 100 % of control; under setting [5], 104 % of control; under setting [6], 113 % of control.
For the compound `Cc1cc2ncc(-c3ccccc3)nc2cc1C`, the T/C is 100 % of control (dose: 25.0 mg/kg/injection, schedule: Q01DX001 (ip), vehicle: saline with Tween-80); 100 % of control (dose: 50.0 mg/kg/injection, schedule: Q01DX001 (ip), vehicle: saline with Tween-80); 89 % of control and 90 % of control (dose: 100.0 mg/kg/injection, schedule: Q01DX001 (ip), vehicle: saline with Tween-80).
For `O=C1OC(C(O)C(O)CO)C(O)C1O` (centres undefined), the T/C was 108 % of control (dose: 50.0 mg/kg/injection, schedule: Q01DX005 (ip), vehicle: saline); 100 % of control (dose: 100.0 mg/kg/injection, schedule: Q01DX005 (ip), vehicle: saline); 95 % of control (dose: 200.0 mg/kg/injection, schedule: Q01DX005 (ip), vehicle: saline).
On to `O=C(c1ccccc1)C(c1ccccc1)C(Cl)c1ccccc1` (centres undefined), for which the T/C runs as follows: (dose: 50.0 mg/kg/injection, schedule: Q01DX009 (ip), vehicle: Klucel (hydroxypropylcellulose) (HPC)) 100 % of control; under setting [10], 97 % of control; under setting [2], 98 % of control; under setting [11], 99 % of control; under setting [3], 100 % of control; under setting [4], 100 % of control.
